The values that follow come from patent publication EP2170885B1, “BETA-CARBOLINE ARYLSULFONAMIDES, METHOD FOR PREPARING THEM AND COMPOSITION COMPRISING THEM” (C4T S.C. a.r.l., priority 2007, dated 2008).

What all share (type): biochemical
One assay deals with T1, MMP14 (Homo sapiens, UniProt P50281).
T1 construct: in the form of the catalytic domains alone for the other MMPs
Kind of assay: Fluorimetric enzymatic test, MMP14. Particulars: for IC50: catalytic domain, fluorimetric test. The method, then:
(§1) Determination of the modulatory activity on the proteolytic action of the various MMPs tested (MMP1, 2, 3, 8, 9, 12, 13 and 14) using the compounds of formula (I) according to the present invention was performed via fluorometry on a 96-well plate.
(§2) The test compounds were dissolved in DMSO to a concentration of 5 mM or 50 mM. 5-fold or 10-fold (D5 or D10) serial dilutions of each compound were prepared so as to reach the nominal range of 5 assays on which the test was performed. Each of the dilutions was added to a well containing 150 µl of activated buffer (50 mM Tris/HCl; 0.1 M NaCl; 10 mM CaCl2; 0.05% Brij 35) together with the enzyme on which the test was performed.
(§3) The concentration of the enzyme [in full-length form in the case of MMP2; in the form of the catalytic domains alone for the other MMPs] ranged between 0.5 nM and 3 nM based on the activity of the enzyme on the fluorogenic substrate used (7-methoxycoumarin-4-yl)-Pro-Leu-Gly-Leu-DPA-Ala-Arg-NH2 (MCA-1) for MMP 1, 2, 3, 8, 9, 12 and 14) and MCA-Pro-(L-cyclohexylalanine)-Gly-(L-norvaline)-His-Ala-3-(2,4-dinitrophenyl)-L-2,3-diaminopropionyl)-NH2 for MMP13) (Knight et al. 1992. FEBS Lett. 296, 263; Knauper et al. 1996, J. Biol. Chem. 271, 1544).
(§4) After incubation for one hour at 37°C of the compound with the enzyme, 50 µl of a solution of fluorogenic substrate were added to a final concentration of between 2 and 7 µM.
(§5) The fluorometric readings were then taken using a Varian Cary Eclipse spectrofluorometer regulated on the specific wavelength for the substrate used, at time T0 and after 3 hours of incubation at 37° (T3h).

The target of the next assay is T2, MMP3 (Homo sapiens, UniProt P08254).
T2 construct: in the form of the catalytic domains alone for the other MMPs
Kind of assay: Fluorimetric enzymatic test, MMP3. As to conditions: for IC50: catalytic domain, fluorimetric test. The method, then:
as §1, §2, §4, §5

In another assay the target is T3, MMP13 (Homo sapiens, UniProt P45452).
T3 construct: in the form of the catalytic domains alone for the other MMPs
Kind of assay: Fluorimetric enzymatic test, MMP13. Particulars: catalytic domain. The method, then:
as §1, §2, §4, §5

A further assay has as its target T4, MMP9 (Homo sapiens, UniProt P14780).
T4 construct: in the form of the catalytic domains alone for the other MMPs
Briefly: Fluorimetric enzymatic test, MMP9. As to conditions: catalytic domain. The method, then:
as §1, §2, §3, §4, §5

The target in a further assay is T5, MMP8 (Homo sapiens, UniProt P22894).
T5 construct: in the form of the catalytic domains alone for the other MMPs
Kind of assay: Fluorimetric enzymatic test, MMP8. Particulars: catalytic domain. The method, then:
as §1, §2, §3, §4, §5

The next assay deals with T6, MMP2 (Homo sapiens, UniProt P08253).
T6 construct: in full-length form in the case of MMP2
T6 sequence (P08253 110-660): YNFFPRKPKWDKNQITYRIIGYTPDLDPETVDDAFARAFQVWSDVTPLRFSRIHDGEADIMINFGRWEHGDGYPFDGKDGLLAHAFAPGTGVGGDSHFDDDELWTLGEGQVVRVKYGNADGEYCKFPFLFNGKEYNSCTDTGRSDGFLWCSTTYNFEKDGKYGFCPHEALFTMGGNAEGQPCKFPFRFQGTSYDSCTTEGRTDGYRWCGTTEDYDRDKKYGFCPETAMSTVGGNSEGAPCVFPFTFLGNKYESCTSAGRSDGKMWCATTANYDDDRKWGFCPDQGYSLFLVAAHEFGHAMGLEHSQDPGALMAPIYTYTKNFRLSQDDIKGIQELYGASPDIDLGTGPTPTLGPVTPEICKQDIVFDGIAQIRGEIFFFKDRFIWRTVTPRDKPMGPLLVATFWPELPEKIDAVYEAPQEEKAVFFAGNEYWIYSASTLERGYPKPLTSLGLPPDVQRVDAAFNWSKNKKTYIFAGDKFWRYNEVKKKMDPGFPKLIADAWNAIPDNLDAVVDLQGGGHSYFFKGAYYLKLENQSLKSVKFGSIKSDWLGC
Briefly: Fluorimetric enzymatic test, MMP2. As to conditions: full enzyme, read-out: IC50MMP2 (full enzyme). The method, then: as §1, §2, §4, §5

A further assay addresses T7, MMP1 (Homo sapiens, UniProt P03956).
T7 construct: in the form of the catalytic domains alone for the other MMPs
T7 sequence (P03956 98-276 limits assumed): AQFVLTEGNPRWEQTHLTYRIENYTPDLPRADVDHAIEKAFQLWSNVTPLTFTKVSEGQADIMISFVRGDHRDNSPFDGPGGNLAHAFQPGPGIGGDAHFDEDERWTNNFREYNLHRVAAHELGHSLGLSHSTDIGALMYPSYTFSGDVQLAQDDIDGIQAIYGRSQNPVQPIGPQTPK
Briefly: Fluorimetric enzymatic test, MMP1. As to conditions: for IC50: catalytic domain, fluorimetric test. The method, then: as §1, §2, §4, §5

The next assay concerns the target T8, MMP12 (Homo sapiens, UniProt P39900).
T8 construct: in the form of the catalytic domains alone for the other MMPs
Kind of assay: Fluorimetric enzymatic test, MMP12. Particulars: catalytic domain. The method, then: as §1, §2, §3, §4, §5

Where [1] appears, read: relative to the limit value of 0.3 nM for MMP2.

T4 sequence (P14780 107-444 limits assumed, species assumed): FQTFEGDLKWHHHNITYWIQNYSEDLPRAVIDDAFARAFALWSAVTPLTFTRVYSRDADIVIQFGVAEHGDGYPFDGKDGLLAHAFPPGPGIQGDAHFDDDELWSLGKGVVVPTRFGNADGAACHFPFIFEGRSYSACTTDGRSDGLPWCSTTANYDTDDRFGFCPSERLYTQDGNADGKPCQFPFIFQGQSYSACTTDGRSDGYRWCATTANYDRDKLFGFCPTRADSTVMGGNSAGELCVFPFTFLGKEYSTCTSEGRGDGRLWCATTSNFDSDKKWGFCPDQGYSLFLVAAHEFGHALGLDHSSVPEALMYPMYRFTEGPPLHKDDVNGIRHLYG
T8 sequence (P39900 106-263 limits assumed, species assumed): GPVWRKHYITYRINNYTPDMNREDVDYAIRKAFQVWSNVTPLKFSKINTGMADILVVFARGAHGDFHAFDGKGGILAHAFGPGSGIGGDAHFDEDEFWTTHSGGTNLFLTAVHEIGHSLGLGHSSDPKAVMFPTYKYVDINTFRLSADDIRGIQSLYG
T5 sequence (P22894 100-262 limits assumed, species assumed): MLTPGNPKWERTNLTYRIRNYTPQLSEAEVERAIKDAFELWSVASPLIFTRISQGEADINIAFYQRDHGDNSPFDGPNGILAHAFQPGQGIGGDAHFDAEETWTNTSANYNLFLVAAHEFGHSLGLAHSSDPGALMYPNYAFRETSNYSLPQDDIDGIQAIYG
T2 sequence (P08254 100-272 limits assumed, species assumed): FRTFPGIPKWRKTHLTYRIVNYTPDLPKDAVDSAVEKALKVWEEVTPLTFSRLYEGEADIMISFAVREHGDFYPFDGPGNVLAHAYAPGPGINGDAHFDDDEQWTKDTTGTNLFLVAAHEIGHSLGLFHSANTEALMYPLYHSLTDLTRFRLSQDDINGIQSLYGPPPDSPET

Consider `COc1ccc(Oc2ccc(S(=O)(=O)N3CCc4c([nH]c5ccccc45)C3C(=O)NO)cc2)cc1` (racemic) [Compound 12, (1 RS)-2-(4"-methoxy-4'-phenoxybenzenesulfonyl)-1,2,3,4-tetrahydronorarmano-N-hydroxy-1-carboxamide], for which the IC50 is 0.005 ± 0.001 µM on MMP14; 30 ± 10 µM on MMP3; < 0.0005 µM against MMP13; < 0.0005 µM at MMP9; < 0.0005 µM against MMP8; < 0.0003 µM at MMP2. In addition, the values for the IC50 against MMP1 and against MMP12 were 0.35 ± 0.1 µM and < 0.0005 µM, respectively.
For `O=C(NO)C1c2[nH]c3ccccc3c2CCN1S(=O)(=O)c1ccc(-c2ccccc2)cc1` (racemic) [Compound 11, (1R,S)-2-(4'biphenylsulfonyl)-1,2,3,4-tetrahydro-norarmano-N-hydroxy-1-carboxamide], the IC50 stood at 0.6 µM against MMP3; 0.003 µM against MMP13; 0.015 ± 0.002 µM against MMP9; 0.0047 ± 0.0005 µM on MMP8; 0.014 ± 0.003 µM at MMP2; 3 ± 1 µM on MMP1. On MMP12, this compound came in with an IC50 of 0.004 ± 0.0016 µM.
On to `CC(C)(C)c1ccc(S(=O)(=O)N2CCc3c([nH]c4ccccc34)C2C(=O)O)cc1` (racemic) [Compound 7, (1 RS)-2-(4'-t-butylbenzenesulfonyl)-1,2,3,4-tetrahydro-norarmano-1-carboxylic acid], for which, on MMP2, the IC50 was > 125 µM.
Turning to `CC1(C)SCCN(S(=O)(=O)c2ccc(Oc3ccncc3)cc2)[C@H]1C(=O)NO` [prinomastat, (3S)-N-hydroxy-4-(4-(pyrid-4-yloxyl)benzenesulfonyl)-2,2-dimethyltetrahydro-2H-1,4-thiazine-3-carboxamide, reference compound], the IC50 against MMP8 and on MMP12 was < 0.0005 µM each time.
Turning to `COc1ccc2[nH]c3c(c2c1)CCNC3C(=O)O` (stereo not shown) [6-methoxy-1,2,3,4-tetrahydronorarmano-1-carboxylic acid, reference compound], the IC50 against MMP8 worked out at 0.2 µM.
For the compound `O=C(NO)C1c2[nH]c3ccccc3c2CCN1S(=O)(=O)c1ccc(Oc2ccc(F)cc2)cc1` (racemic) [Compound 14, (1RS)-2-(4"-fluoro-4'-phenoxybenzenesulfonyl)-1,2,3,4-tetrahydronorarmano-N-hydroxy-1-carboxamide], the IC50 against MMP14 is 0.0032 ± 0.0001 µM; against MMP3 it was 0.6 ± 0.2 µM; at MMP13, < 0.0005 µM; against MMP9, < 0.0005 µM; at MMP8, < 0.0005 µM; on MMP2 it was < 0.0003 µM. The compound also registered an IC50 on MMP1 of 0.34 ± 0.1 µM.
In the case of `O=C(O)C1c2[nH]c3ccccc3c2CCN1S(=O)(=O)c1ccc(Oc2ccc(Cl)cc2)cc1` (racemic) [Compound 8, (1 RS)-2-(4"-chloro-4'-phenoxybenzenesulfonyl)-1,2,3,4-tetrahydronorarmano-1-carboxylic acid], the IC50 was > 50 µM against MMP14; > 50 µM on MMP3; 0.8 ± 0.2 µM on MMP13; 15 ± 4 µM against MMP9; 10 ± 1 µM against MMP8; 10 ± 2 µM on MMP2. Further, the IC50 is > 50 µM on MMP1 and 2 ± 0.2 µM against MMP12.
For the compound `COc1ccc(Oc2ccc(S(=O)(=O)N3CCc4c([nH]c5ccccc45)C3C(=O)O)cc2)cc1` (racemic) [Compound 2, (1RS)-2-(4"-methoxy-4'-phenoxybenzenesulfonyl)-1,2,3,4-tetrahydronorarmano-1-carboxylic acid], the IC50 is > 50 µM at MMP14; > 50 µM at MMP3; 15 ± 5 µM against MMP13; 2.2 ± 0.8 µM against MMP9; 1.6 ± 0.2 µM against MMP8; 0.6 ± 0.1 µM on MMP2. Further, the IC50 was > 50 µM against MMP1 and 0.5 ± 0.1 µM against MMP12.
Turning to `CCCCOc1ccc(S(=O)(=O)N2CCc3c([nH]c4ccccc34)C2C(=O)NO)cc1` (racemic) [Compound 10, (1R,S)-2-(4'-butoxybenzenesulfonyl)-1,2,3,4-tetrahydro-norarmano-N-hydroxy-1-carboxamide], the IC50 against MMP14 was 0.05 ± 0.011 µM; at MMP3, 4 ± 1.5 µM; at MMP13, 2 ± 0.5 µM; at MMP9, 0.006 ± 0.002 µM; against MMP8, < 0.0005 µM; at MMP2, 0.007 ± 0.0025 µM. Also, the results for the IC50 against MMP1 and against MMP12 were 20 ± 2 µM and < 0.0005 µM, respectively.
For the compound `O=C(NO)C1c2[nH]c3ccccc3c2CCN1S(=O)(=O)c1ccc(Oc2ccc(Cl)cc2)cc1` (racemic) [Compound 13, (1 RS)-2-(4"-chloro-4'-phenoxybenzenesulfonyl)-1,2,3,4-tetrahydronorarmano-N-hydroxy-1-carboxamide], the figures for the IC50 on MMP14, on MMP2 and against MMP1 were 0.03 µM, < 0.0003 µM and > 50 µM, respectively. Also, the “decrease in inhibitory power with respect to MMP14” value at MMP14 (setting [1]) is on record as ~100 fold. Further, the “decrease in inhibitory power with respect to MMP3” value on MMP3 (setting [1]) is recorded as ~830 fold. Further, on MMP1 (setting [1]), the “decrease in inhibitory power with respect to MMP1” value is “about 16 000 fold”.
As to `O=C(O)C1c2[nH]c3ccccc3c2CCN1S(=O)(=O)c1ccc(-c2ccccc2)cc1` (racemic) [Compound 3, (1RS)-2-(4'-phenylbenzenesulfonyl)-1,2,3,4-tetrahydro-norarmano-1-carboxylic acid], the IC50 against MMP14 stood at 30 ± 2 µM; against MMP3 it was 11 ± 1 µM; on MMP13, 0.16 ± 0.05 µM; at MMP9 it was 7.5 ± 5 µM; against MMP8 it was 3 ± 0.7 µM; at MMP2, 0.6 ± 0.8 µM. The IC50 on MMP1 is > 50 µM; at MMP12, 0.3 ± 0.05 µM.
As to `Cc1ccc(S(=O)(=O)N2CCc3c([nH]c4ccccc34)C2C(=O)O)cc1` (racemic) [Compound 5, (1RS)-2-(4-methylbenzenesulfonyl)-1,2,3,4-tetrahydro-norarmano-1-carboxylic acid], the IC50 on MMP9 was 141 µM; at MMP2 it was 15 µM.
Take `CCCCOc1ccc(S(=O)(=O)N2CCc3c([nH]c4ccccc34)C2C(=O)O)cc1` (racemic) [Compound 4, (1 RS)-2-(4'-butoxybenzenesulfonyl)-1,2,3,4-tetrahydro-norarmano-1-carboxylic acid]: the IC50 is 2 ± 0.5 µM against MMP13; 24 ± 1 µM against MMP9; 30 µM on MMP8; 0.68 ± 0.2 µM at MMP2; > 50 µM against MMP1; 4.5 ± 1 µM against MMP12.
With `O=C(O)C1c2[nH]c3ccccc3c2CCN1S(=O)(=O)c1ccc(Oc2ccc(F)cc2)cc1` (racemic) [Compound 9, (1 RS)-2-(4"-fluoro-4'phenoxybenzenesulfonyl)-1,2,3,4-tetrahydronorarmano-1-carboxylic acid], the IC50 against MMP14 was > 50 µM; against MMP3, > 50 µM; on MMP13, > 50 µM; at MMP9, 4 ± 1 µM; against MMP8, 21 ± 2 µM; at MMP2 it was 28 ± 1 µM. Further, the IC50 on MMP1 was > 50 µM; at MMP12, 2 ± 0.3 µM.
For the compound `O=C(O)C1c2[nH]c3ccccc3c2CCN1S(=O)(=O)c1ccc2ccccc2c1` (racemic) [Compound 6, (1RS)-2-(2-naphthylsulfonyl)-1,2,3,4-tetrahydro-norarmano-1-carboxylic acid], the IC50 was found to be 62 ± 5 µM at MMP9 and 2.5 ± 0.1 µM on MMP2.
